# PubChem BioAssay (NCI)
#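 Tested at 5 concentrations; 48 h exposure; 96-well plates; endpoints linearly interpolated, else capped at highest concentration. The concentration for 50% growth inhibition is given as GI50. TGI denotes the concentration required for complete inhibition of growth.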
# How the values were obtained:
# Test in all cases: NCI anticancer screen, dose series, 48 h
# [1] = tested on: SW-620 colon
# [2] = tested on: HCC-2998 colon
# [3] = tested on: SNB-19 CNS
# [4] = tested on: MDA-MB-435
# [5] = tested on: HT29 colon
# [6] = tested on: OVCAR-3 ovarian
# [7] = tested on: KM12 colon
# [8] = tested on: HOP-92 NSCLC
# [9] = tested on: SF-539 CNS
# [10] = tested on: HCT-15 colon
# [11] = tested on: NCI-H460 lung
# [12] = tested on: HL-60(TB) leukemia
# [13] = tested on: SF-268 CNS
# [14] = tested on: OVCAR-8 ovarian
# [15] = tested on: DU-145 prostate
# [16] = tested on: T-47D breast
# [17] = tested on: HS 578T breast
# [18] = tested on: BT-549 breast
# [19] = tested on: NCI-H522 lung
# [20] = tested on: NCI/ADR-RES ovarian
# [21] = tested on: OVCAR-4 ovarian
# [22] = tested on: COLO 205 colon
# [23] = tested on: NCI-H226 lung
# [24] = tested on: A549 NSCLC
# [25] = tested on: SK-OV-3 ovarian
# [26] = tested on: UACC-257 melanoma
# [27] = tested on: LOX IMVI melanoma
structure (smiles),measurement,setting,value
CC[C@]12C=CCN3CC[C@@]4(c5ccc(OC)cc5N(C)[C@H]4[C@@](O)(C(=O)OC)[C@@H]1OC(=O)CCCC[P+](c1ccc(OC)cc1)(c1ccc(OC)cc1)c1ccc(OC)cc1)[C@@H]32,TGI,[1],6.43 µM
same,GI50,[2],0.617 µM
same,TGI,[2],1.85 µM
same,GI50,[3],0.484 µM
same,TGI,[3],1.95 µM
same,GI50,[4],0.521 µM
same,TGI,[4],1.83 µM
same,GI50,[5],0.511 µM
same,TGI,[5],2.02 µM
same,GI50,[6],0.634 µM
same,TGI,[6],2.33 µM
same,GI50,[7],0.675 µM
same,TGI,[7],1.99 µM
same,GI50,[8],0.52 µM
same,TGI,[8],2.64 µM
same,GI50,[9],1.52 µM
same,TGI,[9],5.44 µM
same,GI50,[10],8.79 µM
same,TGI,[10],22.3 µM
same,GI50,[11],1.15 µM
same,TGI,[11],11.2 µM
same,GI50,[12],0.234 µM
same,TGI,[12],0.674 µM
same,GI50,[13],1.47 µM
same,TGI,[13],3.49 µM
same,GI50,[14],1.99 µM
same,TGI,[14],9.6 µM
same,GI50,[15],1.6 µM
same,TGI,[15],12.3 µM
same,GI50,[16],0.383 µM
same,TGI,[16],2.83 µM
same,GI50,[17],1.51 µM
same,TGI,[17],4.99 µM
same,GI50,[18],1.25 µM
same,TGI,[18],2.6 µM
same,GI50,[19],0.341 µM
same,TGI,[19],1.25 µM
same,GI50,[20],20.5 µM
same,TGI,[20],55.9 µM
same,GI50,[21],1.57 µM
same,TGI,[21],11.6 µM
same,GI50,[22],0.214 µM
same,TGI,[22],0.45 µM
same,GI50,[23],2.03 µM
same,TGI,[23],7.49 µM
same,GI50,[24],1.65 µM
same,TGI,[24],11.5 µM
same,GI50,[25],1.4 µM
same,TGI,[25],4.52 µM
same,GI50,[26],0.792 µM
same,TGI,[26],2.31 µM
same,GI50,[27],1.11 µM
same,TGI,[27],2.35 µM
